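Results reflect a 48-hour exposure of cells in 96-well plates to compound at five concentrations. GI50: concentration for 50% inhibition of growth. At the TGI there is no net growth.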
Experiments:
Test in all cases: NCI anticancer screen, dose series, 48 h
SW-620 colon = system: SW-620 colon
HOP-92 NSCLC = system: HOP-92 NSCLC
UACC-257 melanoma = system: UACC-257 melanoma
HT29 colon = system: HT29 colon
HCC-2998 colon = system: HCC-2998 colon
MALME-3M melanoma = system: MALME-3M melanoma
COLO 205 colon = system: COLO 205 colon
NCI-H460 lung = system: NCI-H460 lung
HL-60(TB) leukemia = system: HL-60(TB) leukemia
TK-10 renal = system: TK-10 renal
MCF7 breast = system: MCF7 breast
SR leukemia = system: SR leukemia
CAKI-1 renal = system: CAKI-1 renal
MDA-MB-468 breast = system: MDA-MB-468 breast
HCT-15 colon = system: HCT-15 colon
786-0 renal = system: 786-0 renal
OVCAR-3 ovarian = system: OVCAR-3 ovarian
IGROV1 ovarian = system: IGROV1 ovarian
U251 CNS = system: U251 CNS
SF-295 CNS = system: SF-295 CNS
BT-549 breast = system: BT-549 breast
SNB-75 CNS = system: SNB-75 CNS
CCRF-CEM leukemia = system: CCRF-CEM leukemia
A549 NSCLC = system: A549 NSCLC
OVCAR-4 ovarian = system: OVCAR-4 ovarian
MDA-MB-435 = system: MDA-MB-435
PC-3 prostate = system: PC-3 prostate
SF-268 CNS = system: SF-268 CNS
HCT-116 colon = system: HCT-116 colon
OVCAR-8 ovarian = system: OVCAR-8 ovarian
OVCAR-5 ovarian = system: OVCAR-5 ovarian
SK-MEL-28 melanoma = system: SK-MEL-28 melanoma
SK-OV-3 ovarian = system: SK-OV-3 ovarian
SN12C renal = system: SN12C renal
MDA-MB-231 breast = system: MDA-MB-231 breast
UO-31 renal = system: UO-31 renal
NCI-H226 lung = system: NCI-H226 lung
M14 melanoma = system: M14 melanoma
NCI-H23 lung = system: NCI-H23 lung
HS 578T breast = system: HS 578T breast
HOP-62 NSCLC = system: HOP-62 NSCLC
DU-145 prostate = system: DU-145 prostate
NCI/ADR-RES ovarian = system: NCI/ADR-RES ovarian
NCI-H522 lung = system: NCI-H522 lung
KM12 colon = system: KM12 colon
LOX IMVI melanoma = system: LOX IMVI melanoma
SF-539 CNS = system: SF-539 CNS
SK-MEL-5 melanoma = system: SK-MEL-5 melanoma
UACC-62 melanoma = system: UACC-62 melanoma
K-562 leukemia = system: K-562 leukemia
RXF 393 renal = system: RXF 393 renal
MOLT-4 leukemia = system: MOLT-4 leukemia
A498 renal = system: A498 renal

CC[C@@]1(O)C(=O)OCc2c1cc1n(c2=O)Cc2c-1nc1cc(F)c(C)c3c1c2[C@@H](N)CC3
GI50 (SW-620 colon): < 10 nM | TGI (SW-620 colon): 13100 nM | GI50 (HOP-92 NSCLC): < 10 nM | TGI (HOP-92 NSCLC): 192 nM | GI50 (UACC-257 melanoma): 10.3 nM | TGI (UACC-257 melanoma): 166 nM | GI50 (HT29 colon): < 10 nM | TGI (HT29 colon): 1040 nM | GI50 (HCC-2998 colon): 12.9 nM | TGI (HCC-2998 colon): 129 nM | GI50 (MALME-3M melanoma): 11 nM | TGI (MALME-3M melanoma): 247 nM | GI50 (COLO 205 colon): 39.3 nM | TGI (COLO 205 colon): 298 nM | GI50 (NCI-H460 lung): < 10 nM | TGI (NCI-H460 lung): 434 nM | GI50 (HL-60(TB) leukemia): < 10 nM | GI50 (TK-10 renal): 61.1 nM | TGI (TK-10 renal): 3180 nM | GI50 (MCF7 breast): < 10 nM | TGI (MCF7 breast): > 100000 nM | GI50 (SR leukemia): < 10 nM | TGI (SR leukemia): > 100000 nM | GI50 (CAKI-1 renal): < 10 nM | TGI (CAKI-1 renal): 74.1 nM | GI50 (MDA-MB-468 breast): < 10 nM | TGI (MDA-MB-468 breast): < 10 nM | GI50 (HCT-15 colon): 14.6 nM | TGI (HCT-15 colon): 4890 nM | GI50 (786-0 renal): < 10 nM | TGI (786-0 renal): < 37 nM | GI50 (OVCAR-3 ovarian): 36.8 nM | TGI (OVCAR-3 ovarian): 635 nM | GI50 (IGROV1 ovarian): 26.1 nM | TGI (IGROV1 ovarian): 1150 nM | GI50 (U251 CNS): < 10 nM | TGI (U251 CNS): 102 nM | GI50 (SF-295 CNS): < 10 nM | TGI (SF-295 CNS): 42.5 nM | GI50 (BT-549 breast): < 10 nM | TGI (BT-549 breast): 111 nM | GI50 (SNB-75 CNS): < 10 nM | TGI (SNB-75 CNS): 175 nM | GI50 (CCRF-CEM leukemia): < 10 nM | GI50 (A549 NSCLC): < 10 nM | TGI (A549 NSCLC): 456 nM | GI50 (OVCAR-4 ovarian): 32.5 nM | TGI (OVCAR-4 ovarian): > 100000 nM | GI50 (MDA-MB-435): < 10 nM | TGI (MDA-MB-435): 625 nM | GI50 (PC-3 prostate): 20.6 nM | TGI (PC-3 prostate): > 100000 nM | GI50 (SF-268 CNS): < 10 nM | TGI (SF-268 CNS): > 100000 nM | GI50 (HCT-116 colon): < 10 nM | TGI (HCT-116 colon): 11500 nM | GI50 (OVCAR-8 ovarian): < 10 nM | TGI (OVCAR-8 ovarian): 116 nM | GI50 (OVCAR-5 ovarian): < 12.4 nM | TGI (OVCAR-5 ovarian): 801 nM | GI50 (SK-MEL-28 melanoma): 111 nM | TGI (SK-MEL-28 melanoma): > 100000 nM | GI50 (SK-OV-3 ovarian): < 10 nM | TGI (SK-OV-3 ovarian): 135 nM | GI50 (SN12C renal): < 10 nM | TGI (SN12C renal): 145 nM | GI50 (MDA-MB-231 breast): 28.5 nM | TGI (MDA-MB-231 breast): 2220 nM | GI50 (UO-31 renal): < 10 nM | TGI (UO-31 renal): 48.1 nM | GI50 (NCI-H226 lung): < 10 nM | TGI (NCI-H226 lung): < 19.7 nM | GI50 (M14 melanoma): < 10 nM | TGI (M14 melanoma): 27.9 nM | GI50 (NCI-H23 lung): < 10 nM | TGI (NCI-H23 lung): < 10 nM | GI50 (HS 578T breast): 221 nM | TGI (HS 578T breast): > 100000 nM | GI50 (HOP-62 NSCLC): < 10 nM | TGI (HOP-62 NSCLC): < 49.4 nM | GI50 (DU-145 prostate): < 10 nM | TGI (DU-145 prostate): > 100000 nM | GI50 (NCI/ADR-RES ovarian): < 10 nM | TGI (NCI/ADR-RES ovarian): 21.3 nM | GI50 (NCI-H522 lung): < 10 nM | TGI (NCI-H522 lung): 37.9 nM | GI50 (KM12 colon): 18.4 nM | TGI (KM12 colon): > 100000 nM | GI50 (LOX IMVI melanoma): < 10 nM | TGI (LOX IMVI melanoma): 10.1 nM | GI50 (SF-539 CNS): < 10 nM | TGI (SF-539 CNS): < 10 nM | GI50 (SK-MEL-5 melanoma): < 10 nM | TGI (SK-MEL-5 melanoma): < 10 nM | GI50 (UACC-62 melanoma): < 10 nM | TGI (UACC-62 melanoma): 14.6 nM | GI50 (K-562 leukemia): < 10 nM | TGI (K-562 leukemia): > 100000 nM | GI50 (RXF 393 renal): < 10 nM | TGI (RXF 393 renal): < 13.5 nM | GI50 (MOLT-4 leukemia): < 10 nM | GI50 (A498 renal): < 10.7 nM | TGI (A498 renal): 187 nM

Reference: PubChem BioAssay (NCI)
